# Reference: paper PMC5587642, “A Novel Benzocoumarin-Stilbene Hybrid as a DNA ligase I inhibitor with in vitro and in vivo anti-tumor activity in breast cancer models” (Scientific Reports, 2017)
# Key:
# hLigIIIβ = biological target: T1, hLigIIIβ (Homo sapiens, UniProt P49916); test: In-vitro DNA ligation assay; assay type: biochemical; conditions: 5, 10 and 20 µM
# T1 construct: made in house; host or cells: E. coli Rosetta2 (DE3) pLacI
# Description: (§1) DNA ligation assay was performed as described previously. […] After the incubation, gel images were captured and analyzed by Image Quant LAS4010 software.
# T4 DNA ligase = T4 DNA ligase (Enterobacteria phage T4, UniProt P00970); test: In-vitro DNA ligation assay; assay type: biochemical; conditions: 5, 10 and 20 µM
# T4 DNA ligase, sequence (P00970 whole entry): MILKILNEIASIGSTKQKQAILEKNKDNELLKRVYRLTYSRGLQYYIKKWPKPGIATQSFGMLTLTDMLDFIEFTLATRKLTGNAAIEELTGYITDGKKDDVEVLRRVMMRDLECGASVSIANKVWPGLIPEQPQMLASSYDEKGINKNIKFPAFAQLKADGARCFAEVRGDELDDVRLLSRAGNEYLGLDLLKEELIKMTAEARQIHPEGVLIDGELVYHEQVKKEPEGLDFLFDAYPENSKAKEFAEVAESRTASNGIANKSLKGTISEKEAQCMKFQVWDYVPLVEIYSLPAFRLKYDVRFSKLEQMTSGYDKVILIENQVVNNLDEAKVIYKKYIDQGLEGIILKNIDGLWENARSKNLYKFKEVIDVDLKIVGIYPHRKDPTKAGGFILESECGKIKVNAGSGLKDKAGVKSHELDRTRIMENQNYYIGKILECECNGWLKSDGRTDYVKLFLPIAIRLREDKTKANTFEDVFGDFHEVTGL
# Description: as §1
# hLigI = biological target: T2, hLigI (Homo sapiens, UniProt P18858); test: In-vitro DNA ligation assay; assay type: biochemical
# T2 construct: made in house
# T2 sequence (P18858 whole entry): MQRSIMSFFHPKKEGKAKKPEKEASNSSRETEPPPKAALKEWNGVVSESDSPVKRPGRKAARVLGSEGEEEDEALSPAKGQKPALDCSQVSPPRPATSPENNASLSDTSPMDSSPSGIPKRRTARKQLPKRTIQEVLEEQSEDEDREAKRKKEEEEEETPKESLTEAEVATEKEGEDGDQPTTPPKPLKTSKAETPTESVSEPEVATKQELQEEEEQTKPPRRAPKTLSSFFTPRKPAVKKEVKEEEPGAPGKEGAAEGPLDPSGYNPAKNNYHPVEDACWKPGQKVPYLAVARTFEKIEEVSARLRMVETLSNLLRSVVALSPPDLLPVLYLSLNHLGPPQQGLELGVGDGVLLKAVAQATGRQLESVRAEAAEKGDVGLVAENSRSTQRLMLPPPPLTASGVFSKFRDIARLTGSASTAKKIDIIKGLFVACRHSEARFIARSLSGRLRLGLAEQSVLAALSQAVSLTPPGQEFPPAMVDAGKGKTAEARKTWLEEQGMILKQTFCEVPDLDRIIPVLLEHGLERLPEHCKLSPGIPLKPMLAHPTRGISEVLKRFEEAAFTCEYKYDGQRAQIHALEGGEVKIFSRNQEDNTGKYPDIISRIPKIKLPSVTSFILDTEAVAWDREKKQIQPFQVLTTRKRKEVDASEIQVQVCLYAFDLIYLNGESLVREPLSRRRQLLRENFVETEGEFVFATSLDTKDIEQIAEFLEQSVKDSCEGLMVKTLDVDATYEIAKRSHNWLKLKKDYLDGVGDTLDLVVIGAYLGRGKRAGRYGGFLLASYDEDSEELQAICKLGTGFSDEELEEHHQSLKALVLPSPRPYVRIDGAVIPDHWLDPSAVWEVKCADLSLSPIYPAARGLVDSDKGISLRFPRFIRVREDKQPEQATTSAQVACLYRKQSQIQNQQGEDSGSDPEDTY
# Description: as §1
# hLigIV/XRCC4 = biological target: T3, hLigIV/XRCC4 (Homo sapiens, UniProt P49917); test: In-vitro DNA ligation assay; assay type: biochemical; conditions: 5, 10 and 20 µM
# T3 construct: made in house; host or cells: E. coli Rosetta2 (DE3) pLacI
# T3 sequence (P49917 whole entry): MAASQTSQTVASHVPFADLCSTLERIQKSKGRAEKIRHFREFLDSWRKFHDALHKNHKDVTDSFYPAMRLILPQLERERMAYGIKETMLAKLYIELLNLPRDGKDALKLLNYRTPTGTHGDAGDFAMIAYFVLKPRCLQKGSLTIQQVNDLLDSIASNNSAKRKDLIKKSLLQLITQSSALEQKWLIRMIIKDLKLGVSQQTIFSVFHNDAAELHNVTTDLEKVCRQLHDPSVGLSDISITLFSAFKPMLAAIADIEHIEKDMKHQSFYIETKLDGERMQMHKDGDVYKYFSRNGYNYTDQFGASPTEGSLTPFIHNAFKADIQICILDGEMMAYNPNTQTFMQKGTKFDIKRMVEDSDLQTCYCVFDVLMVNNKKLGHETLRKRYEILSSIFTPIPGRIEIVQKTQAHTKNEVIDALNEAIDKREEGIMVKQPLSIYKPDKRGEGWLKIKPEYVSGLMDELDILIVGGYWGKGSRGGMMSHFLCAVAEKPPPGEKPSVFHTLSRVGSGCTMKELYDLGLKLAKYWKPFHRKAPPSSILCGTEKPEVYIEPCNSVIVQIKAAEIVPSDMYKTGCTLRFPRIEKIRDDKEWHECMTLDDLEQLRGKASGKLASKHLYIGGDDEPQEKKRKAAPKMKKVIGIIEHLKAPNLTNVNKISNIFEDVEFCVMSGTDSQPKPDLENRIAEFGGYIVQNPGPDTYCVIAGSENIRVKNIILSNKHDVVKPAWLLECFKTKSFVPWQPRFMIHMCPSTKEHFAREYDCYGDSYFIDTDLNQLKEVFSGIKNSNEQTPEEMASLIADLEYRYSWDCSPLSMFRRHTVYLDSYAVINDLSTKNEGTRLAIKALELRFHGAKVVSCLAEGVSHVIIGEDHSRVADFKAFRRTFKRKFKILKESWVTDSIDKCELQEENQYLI
# T3 sequence (Q13426 whole entry partner): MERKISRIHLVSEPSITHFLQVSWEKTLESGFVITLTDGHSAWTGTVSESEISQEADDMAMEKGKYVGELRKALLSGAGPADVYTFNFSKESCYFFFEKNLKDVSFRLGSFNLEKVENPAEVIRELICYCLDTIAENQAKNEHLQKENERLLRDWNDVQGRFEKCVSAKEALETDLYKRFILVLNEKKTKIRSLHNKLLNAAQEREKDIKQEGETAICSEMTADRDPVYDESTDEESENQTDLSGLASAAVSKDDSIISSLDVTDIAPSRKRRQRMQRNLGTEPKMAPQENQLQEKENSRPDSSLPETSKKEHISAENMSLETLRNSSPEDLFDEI
# Description: as §1
# PARP1 = PARP1 (Homo sapiens, UniProt P09874); test: PARP1 activity assay (NAD fluorescence); conditions: compound 19 at 5, 10 and 20 µM
# PARP1, sequence (P09874 whole entry): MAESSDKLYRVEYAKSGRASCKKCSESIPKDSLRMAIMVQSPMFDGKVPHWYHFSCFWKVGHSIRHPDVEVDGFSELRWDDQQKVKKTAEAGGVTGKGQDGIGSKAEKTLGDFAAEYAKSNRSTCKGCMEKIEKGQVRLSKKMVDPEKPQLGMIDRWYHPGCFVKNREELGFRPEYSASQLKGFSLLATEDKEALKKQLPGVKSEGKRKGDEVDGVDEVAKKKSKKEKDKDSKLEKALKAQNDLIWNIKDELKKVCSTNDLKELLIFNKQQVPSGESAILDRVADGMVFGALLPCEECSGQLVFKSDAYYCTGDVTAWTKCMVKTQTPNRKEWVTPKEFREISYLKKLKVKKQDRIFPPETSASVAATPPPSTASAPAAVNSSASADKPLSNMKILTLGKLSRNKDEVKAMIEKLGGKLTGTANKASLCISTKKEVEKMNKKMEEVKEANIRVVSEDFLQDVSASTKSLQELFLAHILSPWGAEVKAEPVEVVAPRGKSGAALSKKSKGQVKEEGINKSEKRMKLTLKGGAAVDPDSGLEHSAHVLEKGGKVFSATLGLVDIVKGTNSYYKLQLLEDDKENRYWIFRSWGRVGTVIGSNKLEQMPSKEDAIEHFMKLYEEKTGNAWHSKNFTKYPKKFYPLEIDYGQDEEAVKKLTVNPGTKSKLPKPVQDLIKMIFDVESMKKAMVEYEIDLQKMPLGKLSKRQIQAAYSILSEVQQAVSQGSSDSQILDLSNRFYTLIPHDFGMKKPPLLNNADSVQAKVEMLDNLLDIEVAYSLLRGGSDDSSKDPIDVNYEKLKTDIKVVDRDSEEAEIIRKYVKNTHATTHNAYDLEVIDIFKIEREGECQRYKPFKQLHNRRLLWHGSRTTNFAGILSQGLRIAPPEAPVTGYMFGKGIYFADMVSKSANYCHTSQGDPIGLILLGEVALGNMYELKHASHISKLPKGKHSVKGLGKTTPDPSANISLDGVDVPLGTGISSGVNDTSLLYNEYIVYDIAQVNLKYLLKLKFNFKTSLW
# Description: Human PARP1 full length protein was purified as described previously ^4,5.
# Samples were cooled and fluorescence measurement carried out at excitation 360nm and emission range 445nm.
# MDA-MB-231 cells = test: Comet assay; assay type: cell-based, human; conditions: 12 µM, 48 h
# Description: Comet assay was performed as described by Olive et al ^3 with slight modifications. MDA-MB-231 cells treated with compound 19 at 12µM for 48h. The harvested cells were mixed with low melting point agarose and pipet the 200μl of cell suspension onto agarose coated surface of frosted slides. The samples were lysed for overnight at 4 °C after the lysis, electrophoresis performed at 40mA for 30mins. The slides neutralized by water, stained with propidium iodide and images were captured by fluorescence microscope. As shown in Supplementary Fig. 71 the treated samples (B) have increased length of DNA tail as compared to control sample (A). This increase in the tail length of DNA occurs due to DNA damage which is induced by compound 19 in MDA-MB-231 cells.
# [1] = tested on: DNA ligase activity in 4T1 cell lysate; test: Ex-vivo ligation assay with lysate of treated cells; assay type: cell-based, mouse; conditions: 4T1, treated 48 h
# Description: The MDA-MB-231 and 4T1 cells were treated with different concentrations of compound 19 for 48h. Cell lysate were prepared as described previously ^6 for the ligation assay. Here we used same DNA substrate which was used in FEN1 flap cleavage assay so that we can check the activity of hLigI and FEN1 proteins in compound 19 treated samples. The reactions were performed as described previously ^6. In the Supplementary Fig. 74 cleaved product remain (25 mer) same. This cleaved product occurs after the cleavage of 25+6 mer oligo by FEN1 protein, since the cleaved product (25 mer) remains same in treated as well as in control samples we can conclude that the compound 19 unable to inhibit the FEN1 protein inside the cells. The cleaved product (25 mer) make a double strand nicked substrate for hLig I protein with 27 mer and 52 mer oligo used in the reaction. hLigI protein gives rise to ligated (52 mer oligo) product after the completion of reaction. In the treated samples, ligated product (52 mer) decreases as compared to untreated samples.
# T1 sequence (P49916 43-949 isoform P49916-2 limits assumed): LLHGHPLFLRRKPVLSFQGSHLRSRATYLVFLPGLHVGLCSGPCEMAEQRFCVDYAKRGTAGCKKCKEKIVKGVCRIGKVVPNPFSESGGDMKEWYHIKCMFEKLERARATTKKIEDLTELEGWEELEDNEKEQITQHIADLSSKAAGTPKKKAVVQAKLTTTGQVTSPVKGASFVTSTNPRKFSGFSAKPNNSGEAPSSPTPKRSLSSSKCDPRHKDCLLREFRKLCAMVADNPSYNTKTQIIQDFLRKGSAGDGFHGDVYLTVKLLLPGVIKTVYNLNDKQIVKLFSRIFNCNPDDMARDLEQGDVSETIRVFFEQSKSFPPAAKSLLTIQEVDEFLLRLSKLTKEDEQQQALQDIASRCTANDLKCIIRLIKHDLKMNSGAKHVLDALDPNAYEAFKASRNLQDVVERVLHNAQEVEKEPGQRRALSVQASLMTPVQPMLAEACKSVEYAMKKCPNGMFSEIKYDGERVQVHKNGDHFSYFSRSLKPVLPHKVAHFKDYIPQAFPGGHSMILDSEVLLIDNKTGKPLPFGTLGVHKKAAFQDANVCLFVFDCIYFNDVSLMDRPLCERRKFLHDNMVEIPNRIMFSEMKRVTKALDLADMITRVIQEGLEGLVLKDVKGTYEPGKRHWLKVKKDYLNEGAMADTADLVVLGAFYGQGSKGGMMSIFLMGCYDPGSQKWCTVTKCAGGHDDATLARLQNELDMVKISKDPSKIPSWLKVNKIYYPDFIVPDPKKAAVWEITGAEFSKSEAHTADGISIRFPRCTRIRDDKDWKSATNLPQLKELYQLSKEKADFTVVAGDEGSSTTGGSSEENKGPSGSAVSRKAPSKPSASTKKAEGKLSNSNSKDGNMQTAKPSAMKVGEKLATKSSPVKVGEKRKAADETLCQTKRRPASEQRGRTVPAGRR
smiles,measurement,setting,value
"COc1cc(/C=C/c2cc(=O)oc3c2ccc2ccccc23)cc(OC)c1 [Compound 19, (E)-4-(3,5-dimethoxystyryl)-2H-benzo[h]chromen-2-one]",Inhibition of hLigIIIβ ligation activity,hLigIIIβ,unaffected
same,Inhibition of T4 DNA ligase activity,T4 DNA ligase,unaffected
same,"Antiligase activity, compound versus parent molecules",hLigI; 20 µM,significantly better antiligase activity
same,Inhibition of hLigI ligation activity,"hLigI; 5, 10 and 20 µM",specifically inhibits the activity of hLigI
same,Inhibition of hLigIV/XRCC4 ligation activity,hLigIV/XRCC4,unaffected
same,Inhibition of PARP1 activity,PARP1,not able to inhibit
same,DNA tail length (comet assay),MDA-MB-231 cells,significant increase in the tail length of treated cells
same,DNA ligase activity in cell free extracts of treated cells,[1],can inhibit DNA ligase activity
